Source: patent US9670231B2, “Fused tricyclic amide compounds as multiple kinase inhibitors” (BEIGENE, LTD., priority 2013, dated 2017)
Where two headings read alike, the source gives them in different places.

Assays:
Type in all cases: biochemical
[1] = target: EGFR L858R kinase domain (Homo sapiens (Human), UniProt P00533, L858R); assay: EGFR enzymatic assay, TR-FRET, EGFR L858R
Method: (§1) Compounds disclosed herein were tested against WT EGFR kinase domain (aa.669-1210, Carna Biosciences, 08-115), EGFR T790M/L858R kinase domain (aa.669-1210, Carna Biosciences, 08-510) and EGFR L858R kinase domain (aa.669-1210, Carna Biosciences, 08-502) in assays based on time-resolved fluorescence-resonance energy transfer methodology. The assay was carried out in 384-well low volume black plate in a reaction mixture containing EGFR kinases, 20 LM for EGFR WT and T790M/L858R, and 125 LM for EGFR L858R), biotin-TK substrate and 0-5 LM compounds in buffer containing 50 mM HEPES pH7.5, 10 mM MgCl2, 1 mM EGTA, 0.01% Brij-35, 2.5 mM DTT, 0.1% BSA. The kinase was incubated with the compounds disclosed herein at room temperature for 120 minutes and the reaction was initiated by the addition of ATP and biotin-TK substrate. After reaction at room temperature for 30 minutes, an equal volume of stop/detection solution was added according to the manufacture's instruction (CisBio Bioassays). The stop/detection solution contained TK-Antibody-Cryptate and Streptavidin-XL665 in buffer containing 25 mM Tris pH7.4, 400 mM KF, 50 mM EDTA, 0.01% BSA, 0.01% Triton X-100. Plates were sealed and incubated at room temperature for 1 hour, and the TR-FRET signals were read on BMG PHERAstar FS instrument. The IC50 of an inhibitor was derived from fitting the % inhibition data at each compound concentration to the four-parameter logistic equation by Graphpad Prism software.

[2] = target: WT EGFR kinase domain (Homo sapiens (Human), UniProt P00533); assay: EGFR enzymatic assay, TR-FRET, WT EGFR
Method: as §1

[3] = target: B-Raf (V600E) (Homo sapiens (Human), UniProt P15056, V600E); assay: Raf IC50 assay, TR-FRET, B-Raf (V600E); settings: 0.1 mM ATP; read-out: IC50 BRAF-V600E
Method: The enzyme was incubated with the compounds disclosed herein at room temperature for 60 minutes and the reactions were initiated by the addition of ATP and GST-MEK1. After reaction at room temperature for 60 minutes, an equal volume of stop/detection solution was added according to the manufacture's instruction (CisBio Bioassays). […] The IC50 for each compound was derived from fitting the dose-response % inhibition data to the four-parameter logistic model by Graphpad Prism software.

[4] = target: wild type B-Raf (Homo sapiens (Human), UniProt P15056); assay: WT BRaf IC50 assay, TR-FRET; set-up: Braf-WT Km ATP, % at 100 nM: scale not given here; settings: for Braf-WT Km ATP, % at 100 nM: at 100 nM compound
Method: WT BRaf IC50 Assay Protocol
Compounds disclosed herein were tested against wild type B-Raf (PV3848, from Invitrogen) in a time-resolved fluorescence energy transfer assay. […] The enzyme was incubated with the compounds disclosed herein at room temperature for 120 minutes and the reactions were initiated by the addition of ATP and GST-MEK1. After incubating at room temperature for 60 minutes, an equal volume of stop buffer containing 25 mM Tris pH7.4, 400 mM KF, 50 mM EDTA, 0.1% BSA, 0.01% Triton X-100, 1 test of Eu3+Cryptate-conjugated rabbit polyclonal antibody anti-Phospho MEK1/2 (Ser217/221) and 1 test of d2-conjugated mouse monoclonal antibody anti-glutathione S-transferase was added to stop the reactions. Plates were sealed and incubated at room temperature for 1.5 hours, and then the TR-FRET signals were read on BMG PHERAstar FS instrument. The IC50 for each compound was calculated by non linear regression by Graphpad Prism software.

[5] = target: EGFR T790M/L858R kinase domain (Homo sapiens (Human), UniProt P00533, L858R/T790M); assay: EGFR enzymatic assay, TR-FRET, EGFR T790M/L858R
Method: as §1

[6] = target: C-Raf (Y340D/Y341D) (Homo sapiens (Human), UniProt P04049, Y340D/Y341D); assay: Raf IC50 assay, TR-FRET, C-Raf (Y340D/Y341D); settings: 0.1 mM ATP
Method: Compounds disclosed herein were tested against B-Raf (V600E) (PV3849, from Invitrogen) or C-Raf (Y340D/Y341D) (PV3805, from Invitrogen) in a time-resolved fluorescence energy transfer assay. The assay was carried out in reactions (10 μL) containing 0.0625 nM B-Raf or 0.5 nM C-Raf, 25 mM Tris pH7.4, 10 mM MgCl2, 0.5 mM EGTA, 0.5 mM Na3VO4, 5 mM beta-glycerophosphate, 0.01% Triton X-100, 2.5 mM DTT, 0.1% BSA, 0.1 mM ATP, 13.7 nM GST-tagged MEK1 (Full-length protein with K97R mutation, recombinant protein purified from bacterial expression system) and 0-5 μM compounds disclosed herein (final concentration of 1% DMSO). The enzyme was incubated with the compounds disclosed herein at room temperature for 60 minutes and the reactions were initiated by the addition of ATP and GST-MEK1. After reaction at room temperature for 60 minutes, an equal volume of stop/detection solution was added according to the manufacture's instruction (CisBio Bioassays). The stop/detection solution contained Eu^3+ cryptate-conjugated anti-phospho MEK1/2 (Ser217/221) rabbit polyclonal antibody and d2-conjugated anti-GST mouse monoclonal antibody in buffer containing 25 mM Tris pH7.4, 400 mM KF, 50 mM EDTA, 0.01% BSA and 0.01% Triton X-100. Plates were sealed and incubated at room temperature for 2 hours, and the TR-FRET signals (ratio of fluorescence emission at 665 nm over emission at 620 nm with excitation at 337 nm wavelength) were recorded on a PHERAstar FS plate reader (BMG Labtech). Phosphorylation of MEK1 led to the binding of anti-phospho-MEK1/2 antibody to GST-MEK1 protein that place fluorescent donor (Eu^3+ crypate) in close proximity to the accepter d2 on the anti-GST antibody, thus resulting in a high degree of fluorescence resonance energy transfer from the donor fluorophore (at 620 nm) to the acceptor fluorophore (at 665 nm). […] The IC50 for each compound was derived from fitting the dose-response % inhibition data to the four-parameter logistic model by Graphpad Prism software.

[7] = Km ATP ([…] ATP), read-out: IC50 Braf-WT Km ATP

WT EGFR kinase domain, sequence (P00533 669-1210): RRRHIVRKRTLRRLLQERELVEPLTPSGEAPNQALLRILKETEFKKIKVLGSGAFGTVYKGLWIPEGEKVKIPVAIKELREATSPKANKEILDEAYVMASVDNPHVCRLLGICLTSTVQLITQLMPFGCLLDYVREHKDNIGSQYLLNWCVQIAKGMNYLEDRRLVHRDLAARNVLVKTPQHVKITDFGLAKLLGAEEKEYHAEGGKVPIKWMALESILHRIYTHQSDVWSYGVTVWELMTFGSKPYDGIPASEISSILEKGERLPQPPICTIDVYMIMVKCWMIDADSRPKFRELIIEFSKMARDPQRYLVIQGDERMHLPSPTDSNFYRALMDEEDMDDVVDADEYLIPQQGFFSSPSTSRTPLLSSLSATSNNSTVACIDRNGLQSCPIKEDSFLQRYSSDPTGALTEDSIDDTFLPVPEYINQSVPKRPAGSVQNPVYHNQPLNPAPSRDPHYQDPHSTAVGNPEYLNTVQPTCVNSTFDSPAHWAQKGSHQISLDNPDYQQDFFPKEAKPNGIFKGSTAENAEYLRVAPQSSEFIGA
C-Raf (Y340D/Y341D), sequence (P04049 whole entry Y340D/Y341D): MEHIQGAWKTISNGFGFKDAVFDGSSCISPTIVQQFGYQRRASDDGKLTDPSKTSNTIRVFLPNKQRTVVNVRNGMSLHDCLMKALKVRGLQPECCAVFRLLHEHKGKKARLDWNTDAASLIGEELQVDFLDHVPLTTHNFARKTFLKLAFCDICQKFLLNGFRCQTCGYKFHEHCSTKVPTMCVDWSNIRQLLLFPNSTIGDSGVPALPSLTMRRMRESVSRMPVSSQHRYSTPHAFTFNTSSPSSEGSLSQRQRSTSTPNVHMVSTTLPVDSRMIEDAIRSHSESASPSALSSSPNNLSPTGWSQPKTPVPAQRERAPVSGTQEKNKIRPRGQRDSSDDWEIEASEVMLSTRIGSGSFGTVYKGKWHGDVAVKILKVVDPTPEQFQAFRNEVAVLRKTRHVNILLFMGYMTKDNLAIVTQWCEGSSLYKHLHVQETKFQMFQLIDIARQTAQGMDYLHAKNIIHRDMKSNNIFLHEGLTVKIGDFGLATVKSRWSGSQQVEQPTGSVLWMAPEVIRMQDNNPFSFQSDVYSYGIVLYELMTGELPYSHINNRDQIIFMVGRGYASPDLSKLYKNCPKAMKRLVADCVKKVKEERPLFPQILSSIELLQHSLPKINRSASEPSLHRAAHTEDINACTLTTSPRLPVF
B-Raf (V600E), sequence (P15056 whole entry V600E): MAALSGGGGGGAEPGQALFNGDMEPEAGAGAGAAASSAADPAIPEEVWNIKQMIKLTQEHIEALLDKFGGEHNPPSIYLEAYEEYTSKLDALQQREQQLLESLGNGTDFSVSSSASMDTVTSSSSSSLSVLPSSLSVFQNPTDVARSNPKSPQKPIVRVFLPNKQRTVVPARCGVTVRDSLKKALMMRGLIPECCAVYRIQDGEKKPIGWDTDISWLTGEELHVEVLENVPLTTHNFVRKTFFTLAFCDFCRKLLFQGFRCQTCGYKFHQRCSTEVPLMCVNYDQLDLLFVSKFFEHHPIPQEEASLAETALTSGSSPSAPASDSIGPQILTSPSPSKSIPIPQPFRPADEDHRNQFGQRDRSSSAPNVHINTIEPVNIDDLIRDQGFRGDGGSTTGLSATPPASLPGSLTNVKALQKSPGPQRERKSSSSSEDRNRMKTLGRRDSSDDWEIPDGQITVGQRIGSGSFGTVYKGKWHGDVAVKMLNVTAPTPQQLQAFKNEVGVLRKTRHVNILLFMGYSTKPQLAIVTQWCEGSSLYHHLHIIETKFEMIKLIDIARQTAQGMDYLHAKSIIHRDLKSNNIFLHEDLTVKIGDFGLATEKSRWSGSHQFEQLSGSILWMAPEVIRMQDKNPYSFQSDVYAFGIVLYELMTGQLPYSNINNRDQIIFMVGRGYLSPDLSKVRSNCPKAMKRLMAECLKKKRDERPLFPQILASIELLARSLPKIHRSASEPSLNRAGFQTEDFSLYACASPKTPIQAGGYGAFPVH
EGFR T790M/L858R kinase domain, sequence (P00533 669-1210 T790M/L858R): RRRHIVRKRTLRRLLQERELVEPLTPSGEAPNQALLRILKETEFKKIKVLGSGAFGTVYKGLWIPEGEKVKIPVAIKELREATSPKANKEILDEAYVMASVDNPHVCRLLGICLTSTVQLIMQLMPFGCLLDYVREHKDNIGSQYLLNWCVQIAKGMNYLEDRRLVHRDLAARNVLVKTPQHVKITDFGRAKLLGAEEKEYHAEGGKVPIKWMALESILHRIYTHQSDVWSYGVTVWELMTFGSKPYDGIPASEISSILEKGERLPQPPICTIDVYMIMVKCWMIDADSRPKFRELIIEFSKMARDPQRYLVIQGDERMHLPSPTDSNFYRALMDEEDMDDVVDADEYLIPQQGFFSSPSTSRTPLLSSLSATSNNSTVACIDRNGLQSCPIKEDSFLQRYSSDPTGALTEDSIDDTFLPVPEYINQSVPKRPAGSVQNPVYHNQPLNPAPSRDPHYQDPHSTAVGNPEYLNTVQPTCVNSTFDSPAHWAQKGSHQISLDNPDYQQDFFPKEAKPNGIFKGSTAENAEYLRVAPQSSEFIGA
EGFR L858R kinase domain, sequence (P00533 669-1210 L858R): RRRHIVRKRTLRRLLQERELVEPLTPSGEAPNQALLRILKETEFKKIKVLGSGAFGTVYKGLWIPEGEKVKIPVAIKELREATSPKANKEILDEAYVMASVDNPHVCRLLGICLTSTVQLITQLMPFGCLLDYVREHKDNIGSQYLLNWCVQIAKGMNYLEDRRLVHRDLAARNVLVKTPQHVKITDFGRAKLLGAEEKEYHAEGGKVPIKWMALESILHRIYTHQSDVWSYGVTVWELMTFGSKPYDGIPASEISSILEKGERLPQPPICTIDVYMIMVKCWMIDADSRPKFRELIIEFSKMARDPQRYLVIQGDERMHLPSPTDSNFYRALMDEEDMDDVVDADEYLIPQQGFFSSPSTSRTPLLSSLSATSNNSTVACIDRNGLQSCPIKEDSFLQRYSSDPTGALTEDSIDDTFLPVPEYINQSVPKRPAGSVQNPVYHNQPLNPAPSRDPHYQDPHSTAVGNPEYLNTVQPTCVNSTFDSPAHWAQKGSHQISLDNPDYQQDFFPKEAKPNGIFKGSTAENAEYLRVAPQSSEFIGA
wild type B-Raf, sequence (P15056 whole entry): as the sequence (P15056 whole entry V600E) above, with E600V counted along it

SMILES	IC50 [1] [µM]	IC50 [2] [µM]	IC50 [3] [µM]	IC50 [4, 7] [µM]	IC50 [5] [µM]	IC50 [6] [µM]	IC50 ([4]; IC50 Braf-WT […] ATP, […] ATP) [µM]	Braf-WT Km ATP, % at 100 nM [4] [% at 100 nM]
CN(C)Cc1ccc(C(=O)N[C@@H]2[C@H]3Oc4ccc(Oc5ccnc6c5CCC(=O)N6)cc4[C@@H]23)cc1C(F)(F)F [Compound 1.24]	0.0012	0.0027	0.014	0.034	0.0081	0.0014	–	–
O=C1CCc2c(Oc3ccc4c(c3)[C@H]3[C@H](NC(=O)c5ccc(F)c(F)c5)[C@H]3O4)ccnc2N1 [Compound 1.41]	0.029	0.059	0.0012	–	0.648	–	–	100
O=C1CCc2c(Oc3ccc4c(c3)[C@H]3[C@H](NC(=O)c5ccc(-c6ccccc6)o5)[C@H]3O4)ccnc2N1 [Compound 1.54]	0.152	0.326	0.0049	–	0.757	–	–	93
CN1CCN(CCOc2ccc(C(=O)N[C@@H]3[C@H]4Oc5ccc(Oc6ccnc7c6CCC(=O)N7)cc5[C@@H]34)cc2C(F)(F)F)CC1 [Compound 1.52]	–	–	–	0.015	–	–	–	–
O=C1CCc2c(Oc3ccc4c(c3)[C@H]3[C@H](NC(=O)c5ccc(C(F)(F)F)c(F)c5)[C@H]3O4)ccnc2N1 [Compound 1.42]	–	–	0.0092	–	–	–	–	102
CN(C)[C@H]1CCN(Cc2ccc(C(=O)N[C@@H]3[C@H]4Oc5ccc(Oc6ccnc7c6CCC(=O)N7)cc5[C@@H]34)cc2C(F)(F)F)C1 [Compound 1.9]	–	–	–	0.032	–	–	–	–
Cc1cccc(F)c1C(=O)N[C@@H]1[C@H]2Oc3ccc(Oc4ccnc5c4CCC(=O)N5)cc3[C@@H]12 [Compound 1.37]	0.529	1.24	0.0075	–	> 5	–	–	80
O=C(/C=C/c1cccc(C(F)(F)F)c1)N[C@@H]1[C@H]2Oc3ccc(Oc4ccnc5c4CCC(=O)N5)cc3[C@@H]12 [Compound 1.53]	0.068	0.678	0.016	–	1.14	–	–	86
CCN1CCN(Cc2ccc(C(=O)NC3C4Oc5c(C)cc(Oc6ccnc7c6CCC(=O)N7)cc5C34)cc2C(F)(F)F)CC1 (stereo not shown) [Compound 1.55, 4-((4-ethylpiperazin-1-yl)methyl)-N-(3-methyl-5-((7-oxo-5,6,7,8-tetrahydro-1,8-naphthyridin-4-yl)oxy)-1a,6b-dihydro-1H-cyclopropa[b]benzofuran-1-yl)-3-(trifluoromethyl)benzamide]	0.00035	0.0022	0.018	–	0.0004	–	–	–

Next, values leading:

IC50 [1] [µM]	IC50 [2] [µM]	IC50 [3] [µM]	IC50 [4, 7] [µM]	IC50 [5] [µM]	IC50 [6] [µM]	IC50 ([4]; IC50 Braf-WT […] ATP, […] ATP) [µM]	Braf-WT Km ATP, % at 100 nM [4] [% at 100 nM]	SMILES
0.052	0.085	0.0025	0.0014	0.316	–	–	–	N#CC1(c2cccc(C(=O)N[C@@H]3[C@H]4Oc5ccc(Oc6ccnc7c6CCC(=O)N7)cc5[C@@H]34)c2)CC1 [Compound 1.46, 3-(1-cyanocyclopropyl)-N-((1S,1aS,6bS)-5-((7-oxo-5,6,7,8-tetrahydro-1,8-naphthyridin-4-yl)oxy)-1a,6b-dihydro-1H-cyclopropa[b]benzofuran-1-yl)benzamide]
0.0097	0.018	0.0012	0.0044	0.047	0.00033	0.012	–	O=C1CCc2c(Oc3ccc4c(c3)[C@H]3[C@H](NC(=O)c5cccc(C(F)(F)F)c5)[C@H]3O4)ccnc2N1 [Compound 1.35]
–	–	0.014	0.0098	–	0.00161	–	–	CN1CCC(Oc2ccc(C(=O)N[C@@H]3[C@H]4Oc5ccc(Oc6ccnc7c6CCC(=O)N7)cc5[C@@H]34)cc2C(F)(F)F)CC1 [Compound 1.51, 4-((1-methylpiperidin-4-yl)oxy)-N-((1S,1aS,6bS)-5-((7-oxo-5,6,7,8-tetrahydro-1,8-naphthyridin-4-yl)oxy)-1a,6b-dihydro-1H-cyclopropa[b]benzofuran-1-yl)-3-(trifluoromethyl)benzamide]
0.0054	0.0085	0.0031	–	0.104	–	–	101	O=C1CCc2c(Oc3ccc4c(c3)[C@H]3[C@H](NC(=O)c5cc(C(F)(F)F)ccn5)[C@H]3O4)ccnc2N1 [Compound 1.45, N-((1S,1aS,6bS)-5-((7-oxo-5,6,7,8-tetrahydro-1,8-naphthyridin-4-yl)oxy)-1a,6b-dihydro-1H-cyclopropa[b]benzofuran-1-yl)-4-(trifluoromethyl)picolinamide]
0.06	0.093	0.0014	–	0.538	–	–	96	O=C1CCc2c(Oc3ccc4c(c3)[C@H]3[C@H](NC(=O)c5ccc(F)cc5)[C@H]3O4)ccnc2N1 [Compound 1.36]
–	–	–	0.016	–	–	–	–	CN(C)C1CCN(Cc2ccc(C(=O)N[C@@H]3[C@H]4Oc5ccc(Oc6ccnc7c6CCC(=O)N7)cc5[C@@H]34)cc2C(F)(F)F)CC1 [Compound 1.20]
–	–	2.84	–	–	0.277	–	−2	N[C@@H]1[C@H]2Oc3ccc(Oc4ccnc5c4CCC(=O)N5)cc3[C@@H]12 [Intermediate I, 5-(((1S,1aS,6bS)-1-amino-1a,6b-dihydro-1H-cyclopropa[b]benzofuran-5-yl)oxy)-3,4-dihydro-1,8-naphthyridin-2(1H)-one]
0.063	0.243	0.0048	–	> 5	–	–	93	O=C1CCc2c(Oc3ccc4c(c3)[C@H]3[C@H](NC(=O)c5ccccc5C(F)(F)F)[C@H]3O4)ccnc2N1 [Compound 1.44]
–	–	0.02	0.02	–	0.0017	–	–	O=C1CCc2c(Oc3ccc4c(c3)[C@H]3[C@H](NC(=O)c5ccc(CN6CCn7c(nnc7C(F)(F)F)C6)c(C(F)(F)F)c5)[C@H]3O4)ccnc2N1 [Compound 1.14]
0.079	0.425	0.0047	–	3.19	–	–	84	O=C1CCc2c(Oc3ccc4c(c3)[C@H]3[C@H](NC(=O)c5ccccc5F)[C@H]3O4)ccnc2N1 [Compound 1.38]
